# In patent US12508320B2, “Drug conjugate, pharmaceutical composition and method of treating hepatitis” (SeeCure Taiwan Co., Ltd., priority 2023, dated 2025):
# Key:
# [1] = system: HepG2 2.2.15 cells (a cell line that expresses the hepatitis B virus); experiment: In vitro cell line evaluation: HBsAg/HBeAg levels in culture media of HepG2 2.2.15 cells (AXSYM system kit); type: cell-based; design: HBsAg level: unit of the concentration uncertain; details: 6-9 days of incubation
# Procedure: In the following experimental examples, when HepG2 2.2.15 cells (a cell line that expresses the hepatitis B virus) are used, the cells are maintained in Dulbecco's modified Eagle's medium (DMEM) (Gibco BRL, Grand Island, NY, USA) plus 10% fetal bovine serum (Hyclone, Logan, UT, USA), 100U/mL penicillin, […] streptomycin. HepG2.2.15 cells were seeded at the same density and used as a medium control. The experimental group is composed by administering the substance in the concentration specified by the manufacturer. All cultures were grown in humidified incubators at 37° C. and 5% CO2.
# HepG2 2.2.15 cells were plated into 12-well microtiter plates. On day zero, the cells were washed several times with PBS and treated with tetracycline-free medium that contained either a test drug or a vehicle control group. Each test compound was screened at one concentration in triplicate. On day 3, day 6 and/or day 9, the medium was removed and replaced with fresh medium containing the compound. Twenty-four hours later, the medium was collected and clarified by centrifugation (Sorvall RT-6000D centrifuge, 1,000 rpm, 5 min). Media of HepG2 2.2.15 cells cultures were harvested at 3—, 6-, and 9-days post-HBV infection, and levels of hepatitis B surface antigen (HBsAg) and hepatitis B e antigen (HBeAg) in culture media were measured using an AXSYM system kit (Abbott Diagnostika).
# In experimental example 1, five hepatitis treatment groups were prepared and added to HepG2 2.2.15 cells for evaluation. Group 1 is a control group containing only medium (PBS), whereby no drug compound is added. Group 2 is where a conventional drug Entecavir […] is used alone. Group 3 (CPD-0148) is directed to a compound of formula (IA2) […]. Group 4 (CPD-0150) is directed to a compound of formula (IA3) […]. Group 5 (CPD-0147) is directed to a compound of formula (IA4) […]. After 6-9 days of incubation with the above treatment groups, the levels of hepatitis B surface antigen (HBsAg) were measured using an AXSYM system kit (Abbott Diagnostika), and the results are shown in FIG. 10.
# In experimental example 2, eight hepatitis treatment groups were prepared and added to HepG2 2.2.15 cells for evaluation. Group 1 is a control group containing only medium (PBS), whereby no drug compound is added. Group 2 is where a conventional drug Birinapant […] is used alone. Group 3 (CPD-0004) is directed to a compound of formula (IB1) […]. Group 4 (CPD-0030) is directed to a compound of formula (IB7) […]. Group 5 (CPD-0036) is directed to a compound of formula (IB2) […]. Group 6 (CPD-0133) is directed to a compound of formula (IB3) […]. Group 7 (CPD-0142) is directed to a compound of formula (IB4) […]. Group 8 (CPD-0186) is directed to a compound of formula (IB5) […]. After 6-9 days of incubation with the above treatment groups, the levels of hepatitis B surface antigen (HBsAg) were measured using an AXSYM system kit (Abbott Diagnostika), and the results are shown in FIG. 11.
# In experimental example 3, thirteen hepatitis treatment groups were prepared and added to HepG2 2.2.15 cells for evaluation. Group 1 is a control group containing only medium (PBS), whereby no drug compound is added. Group 2 (Teno-Int) is where an intermediate of the conventional drug Tenofovir (100 mM; structure shown in first step of FIG. 3) is used alone. Group 3 (CPD-0134) is directed to a compound of formula (IC1) […]. Group 4 (CPD-0136) is directed to a compound of formula (IC2) […]. Group 5 (CPD-0137) is directed to a compound of formula (IC3) (510 mM). Group 6 (CPD-0138) is directed to a compound of formula (IC4) […]. Group 7 (CPD-0139) is directed to a compound of formula (IC5) […]. Group 8 (CPD-0143) is directed to a compound of formula (IC6) […]. Group 9 (CPD-0144) is directed to a compound of formula (IC7) […]. Group 10 (CPD-0149) is directed to a compound of formula (IC8) […]. Group 11 (CPD-0158) is directed to a compound of formula (IC9) […]. Group 12 (CPD-0169) is directed to a compound of formula (IC10) […]. […]
# [2] = clinical studies, Birinapant used in combination with HBV drugs such as Tenofovir or Entecavir; cited from earlier work
# [3] = Experimental example 6, HepG2 2.2.15 cells, 100 mM (each), FIG. 15
compound,measurement,setting,value
CC[C@H](NC(=O)[C@H](C)NC)C(=O)N1C[C@@H](O)C[C@H]1Cc1c(-c2[nH]c3cc(F)ccc3c2C[C@@H]2C[C@H](O)CN2C(=O)[C@H](CC)NC(=O)[C@H](C)NC)[nH]c2cc(F)ccc12 [Birinapant],HBsAg level,"[1]; Experimental example 2, HepG2 2.2.15 cells, 500 (unit uncertain), FIG. 11",capable of reducing the HBsAg level as compared with the control
same,side effects,[2],cranial nerve palsies (or Bell's palsies)
C=C1[C@H](CO)[C@@H](O)C[C@@H]1n1cnc2c(=O)[nH]c(N)nc21 [Entecavir],HBsAg level,"[1]; Experimental example 1, HepG2 2.2.15 cells, 100 (unit uncertain), FIG. 10",capable of reducing the HBsAg level as compared with the control
same,HBeAg level,[1]; [3],effective in reducing the HBsAg and HBeAg levels as compared with the control
same,HBsAg level,[1]; [3],effective in reducing the HBsAg and HBeAg levels as compared with the control
CN[C@@H](C)C(=O)N[C@H](C(=O)N1CCC[C@H]1c1nc(C(=O)c2ccc(F)cc2)cs1)C1CCCCC1 [LCL161],HBsAg level,"[1]; Experimental example 4, HepG2 2.2.15 cells, 500 (unit uncertain), FIG. 13",capable of reducing the HBsAg level as compared with the control
"C[C@@H](O)Cn1cnc2c(N)ncnc21 [Teno-Int, (R)-1-(6-amino-9H-purin-9-yl)propan-2-ol]",HBsAg level,"[1]; Experimental example 3, HepG2 2.2.15 cells, 100 mM (IC3: 510 mM), FIG. 12",slightly reduced as compared to the control
